Data: patent US20080045514A1 (Cytovia, Inc., priority 2006, published 2008)
Counter-ions that a name gives are not always drawn. Like-named read-outs stand apart in the source and are kept apart here.

Assays:
Type in all cases: cell-based
[1] = test system: human B cell lymphoblastoid cell line Ramos; assay: Caspase cascade activation (EC50), Ramos; conditions: RAMOS cells, read-out: caspase potency (EC50) RAMOS
In short: (§1)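 Cells were resuspended at 0.65×10^6 cells/mL in medium + 10% FCS and exposed to test compound at 0.016 to 10 μM final for 48 h at 37 °C. Caspase activity was then read as fluorescence (ex 485/em 530 nm) from DEVD-R110 substrate with lysolecithin in PIPES pH 7.2, 3 h at room temperature.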

[2] = test system: human colon carcinoma cell line HCT116; assay: Caspase cascade activation (EC50), HCT116; conditions: HCT116 cells, caspase cascade activation, read-out: caspase potency (EC50) HCT116
In short: as §1

[3] = test system: human lymphoma cell line Raji; assay: Inhibition of cell proliferation (GI50), Raji; conditions: Raji cells, 48 h, CellTiter-Glo
Method: (§2) Human breast cancer cell lines T-47D, human hepatocellular carcinoma cell line SNU398, human colon carcinoma cell line HCT116, human lung cancer cell line H1299, human leukemia cell line K562, human lymphoma cell line Raji, human B cell lymphoblastoid cell line Ramos, and human Burkitt's lymphoma cell line Namalwa were grown and harvested as in Example 100. An aliquot of […] of cells (4.4×10^4 cells/mL) was added to a well of a 96-well microtiter plate containing 5 μL of a 10% DMSO in RPMI-1640 media solution containing 10 nM to 100 μM of 3-(2-chlorophenyl)-6-(3,4-methylenedioxyphenyl)-7H-[1,2,4]triazolo[3,4-b][1,3,4]thiadiazine (1 nM to 10 μM final). An aliquot of 45 μL of cells was added to a well of a 96-well microtiter plate containing 5 μL of a 10% DMSO in RPMI-1640 media solution without compound as the control sample for maximal cell proliferation (LMax). The samples were mixed by agitation and then incubated at 37° C. for 48 h in a 5% CO2-95% humidity incubator. After incubation, the samples were removed from the incubator and 25 μL of CellTiter-Glo™ reagent (Promega) was added. The samples were mixed by agitation and incubated at room temperature for 10-15 min. Plates were then read using a luminescent plate reader (Model SPECTRAfluor Plus, Tecan) to give Ltest values.
(§3) The samples were mixed by agitation and then incubated at 37° C. for 0.5 h in a 5% CO2-95% humidity incubator. After incubation, the samples were removed from the incubator and 25 μL of CellTiter-Glo™ reagent (Promega) was added. The samples were mixed by agitation and incubated at […] 10-15 min at room temperature in a 5% CO2-95% humidity incubator. Fluorescence was read as above, (LStart) defining luminescence for initial cell number used as baseline in GI50 determinations.
(§4) Calculation: GI50 (dose for 50% inhibition of cell proliferation) is the concentration where [(Ltest−LStart)/(LMax−LStart)]=0.5.

[4] = test system: human leukemia cell line K562; assay: Inhibition of cell proliferation (GI50), K562; conditions: K562 cells, 48 h, CellTiter-Glo
Method: as §2, §3, §4

[5] = test system: human breast cancer cell line T-47D; assay: Caspase cascade activation (EC50), T-47D; conditions: T47D cells, caspase cascade activation, read-out: caspase potency (EC50) T47D
In short: as §1

[6] = test system: human colon carcinoma cell line HCT116; assay: Inhibition of cell proliferation (GI50), HCT116; conditions: HCT 116 cells, 48 h, CellTiter-Glo
Method: as §2, §3, §4

[7] = test system: human Burkitt's lymphoma cell line Namalwa; assay: Caspase cascade activation (EC50), Namalwa; conditions: Namalwa cells, caspase cascade activation, read-out: caspase potency (EC50) Namalwa
In short: as §1

[8] = test system: human hepatocellular carcinoma cell line SNU398; assay: Caspase cascade activation (EC50), SNU398; conditions: SNU398 cells, caspase cascade activation, read-out: caspase potency (EC50) SNU398
In short: as §1

[9] = test system: human Burkitt's lymphoma cell line Namalwa; assay: Inhibition of cell proliferation (GI50), Namalwa; conditions: Namalwa cells, 48 h, CellTiter-Glo
Method: as §2, §3, §4

[10] = test system: human lymphoma cell line Raji; assay: Caspase cascade activation (EC50), Raji; conditions: RAJI cells, read-out: caspase potency (EC50) RAJI
In short: as §1

[11] = test system: human B cell lymphoblastoid cell line Ramos; assay: Inhibition of cell proliferation (GI50), Ramos; conditions: Ramos cells, 48 h, CellTiter-Glo
Method: as §2, §3, §4

[12] = Homo sapiens, Burkitts lymphoma cell

Compound	EC50 ([1]; Homo sapiens)	EC50 ([2]; Homo sapiens, HCT-116)	GI50 ([3]; Homo sapiens)	GI50 ([4]; Homo sapiens)	EC50 ([5]; Homo sapiens)	GI50 ([6]; Homo sapiens)	EC50 [7, 12]	EC50 ([8]; Homo sapiens, SNU-398)	GI50 [9, 12]	EC50 ([10]; Homo sapiens)	GI50 ([11]; Homo sapiens)	also measured
COc1ccccc1-c1nnc2n1N=C(c1ccc(N3CCCC3)cc1)CS2 [Example 24, 3-(2-Methoxyphenyl)-6-(4-(pyrrolidin-1-yl)phenyl)-7H-[1,2,4]triazolo[3,4-b][1,3,4]thiadiazine]	62 nM	62 nM	15 nM	17 nM	91 nM	41 nM	35 nM	41 nM	64 nM	107 nM	16 nM	
COc1ccccc1-c1nnc2n1N=C(c1ccc(N3CCOCC3)cc1)CS2 [Example 25, 3-(2-Methoxyphenyl)-6-(4-morpholinophenyl)-7H-[1,2,4]triazolo[3,4-b][1,3,4]thiadiazine]	275 nM	1260 nM	285 nM	317 nM	612 nM	1980 nM	321 nM	694 nM	161 nM	511 nM	105 nM	
CCN(CC)c1ccc(C2=Nn3c(nnc3-c3cc(OC)cc(OC)c3)SC2)cc1 [Example 26, 6-(4-Diethylaminophenyl)-3-(3,5-dimethoxyphenyl)-7H-[1,2,4]triazolo[3,4-b][1,3,4]thiadiazine]	73 nM	280 nM	17 nM	20 nM	297 nM	20 nM	106 nM	114 nM	16 nM	154 nM	20 nM	
COc1ccc(-c2nnc3n2N=C(c2ccc(N(C)C)cc2)CS3)cc1OC [Example 30, 6-(4-Dimethylminophenyl)-3-(3,4-dimethoxyphenyl)-7H-[1,2,4]triazolo[3,4-b][1,3,4]thiadiazine]												EC50 [1]: 57 nM; EC50 [2]: 221 nM; GI50 [3]: 157 nM; GI50 [4]: 50 nM; EC50 [5]: 360 nM; GI50 [6]: 126 nM; EC50 [7]: 55 nM; EC50 [8]: 119 nM; GI50 [9]: 102 nM; EC50 [10]: 64 nM; GI50 [11]: 100 nM
COc1ccc(-c2nnc3n2N=C(c2ccc(N=[N+]=[N-])cc2)CS3)cc1OC [Example 31, 6-(4-Azidophenyl)-3-(3,4-dimethoxyphenyl)-7H-[1,2,4]triazolo[3,4-b][1,3,4]thiadiazine]	520 nM	5550 nM	6330 nM	581 nM	2390 nM	4250 nM	544 nM	619 nM	1470 nM	534 nM	503 nM	
CCOc1ccc(C2=Nn3c(nnc3-c3ccccc3Br)SC2)cc1 [Example A3]	125 nM	314 nM	103 nM	41 nM	1080 nM	361 nM	104 nM	243 nM	79 nM	268 nM	17 nM	
COc1ccc(C2=Nn3c(nnc3-c3cccc(F)c3)SC2)cc1 [Example C3]	152 nM	424 nM	130 nM	63 nM	1710 nM	852 nM	132 nM	126 nM	112 nM	247 nM	100 nM	
COc1ccc(C2=Nn3c(nnc3-c3ccccc3Br)SC2)cc1 [Example D3]	76 nM	143 nM	85 nM	44 nM	332 nM	100 nM	54 nM	61 nM	33 nM	115 nM	49 nM	
COc1ccc(C2=Nn3c(nnc3-c3ccc(Br)cc3)SC2)cc1 [Example E3]	77 nM	157 nM	66 nM	33 nM	244 nM	200 nM	48 nM	85 nM	47 nM	125 nM	21 nM	
COc1ccc(C2=Nn3c(nnc3-c3cccc(Br)c3)SC2)cc1 [Example I2, 3-(3-Bromophenyl)-6-(4-methoxyphenyl)-7H-[1,2,4]triazolo[3,4-b][1,3,4]thiadiazine]	379 nM	612 nM	176 nM	96 nM	905 nM	376 nM	629 nM	329 nM	400 nM	523 nM	119 nM	

The remaining molecules from weak to strong by EC50 ([1]; Homo sapiens), led by results:

EC50 ([1]; Homo sapiens)	EC50 ([2]; Homo sapiens, HCT-116)	GI50 ([3]; Homo sapiens)	GI50 ([4]; Homo sapiens)	EC50 ([5]; Homo sapiens)	GI50 ([6]; Homo sapiens)	EC50 [7, 12]	EC50 ([8]; Homo sapiens, SNU-398)	GI50 [9, 12]	EC50 ([10]; Homo sapiens)	GI50 ([11]; Homo sapiens)	Compound	also measured
60 nM	122 nM	247 nM	34 nM	553 nM	142 nM	76 nM	55 nM	68 nM	85 nM	20 nM	COc1ccc(C2=Nn3c(nnc3-c3ccccc3F)SC2)cc1 [Example L2, 3-(2-Fluorophenyl)-6-(4-methoxyphenyl)-7H-[1,2,4]triazolo[3,4-b][1,3,4]thiadiazine]	
55 nM	55 nM	3 nM	10 nM	44 nM	23 nM	31 nM	47 nM	2 nM	46 nM	1 nM	CCN(CC)c1ccc(C2=Nn3c(nnc3-c3ccc(OC)cc3OC)SC2)cc1 [Example 27, 6-(4-Diethylaminophenyl)-3-(2,4-dimethoxyphenyl)-7H-[1,2,4]triazolo[3,4-b][1,3,4]thiadiazine]	
29 nM	34 nM	164 nM	38 nM	191 nM	171 nM	41 nM	31 nM	34 nM	53 nM	13 nM	COc1ccc(C2=Nn3c(nnc3-c3ccccc3C)SC2)cc1 [Example N2, 3-(2-Methylphenyl)-6-(4-methoxyphenyl)-7H-[1,2,4]triazolo[3,4-b][1,3,4]thiadiazine]	
27 nM	26 nM	2 nM	2 nM	32 nM	13 nM	15 nM	18 nM	7 nM	27 nM	3 nM	CCN(CC)c1ccc(C2=Nn3c(nnc3-c3ccccc3OC)SC2)cc1 [Example 23, 6-(4-Diethylaminophenyl)-3-(2-methoxyphenyl)-7H-[1,2,4]triazolo[3,4-b][1,3,4]thiadiazine]	
8 nM	8 nM	4 nM	4 nM	34 nM	10 nM	7 nM	5 nM	6 nM	12 nM	1 nM	COc1ccc(-c2nnc3n2N=C(c2ccc(C)cc2)CS3)c(OC)c1 [Example 15, 3-(2,4-Dimethoxyphenyl)-6-(4-methylphenyl)-7H-[1,2,4]triazolo[3,4-b][1,3,4]thiadiazine hydrobromide]	
